# Measurements published in patent US7205333B2 (priority 2000, dated 2007).
# Where two headings read alike, the source gives them in different places.
# Assays:
# [1] = test system: A/Sydney/5/97; assay: Inhibition of cytopathic effect (CPE) of influenza virus replication in MDCK cells; settings: for IC50 / EC50: Influenza A virus, MDCK; for EC50: read-out: EC50 on Influenza A/Sydney/5/97
# [2] = test system: B/Harbin/7/95; assay: as above; settings: for IC50 / EC50: Influenza B virus, MDCK; for EC50: read-out: EC50 on Influenza B/Harbin/7/95
# [3] = test system: A/Victoria/3/75; assay: as above
# [4] = Long duration of action: level of compound in lung tissue after intra-tracheal dosing; format: in vivo, Rodents; settings: 0.4 mg/kg intra-tracheal, LC-MS/MS, in parallel with Zanamivir
# Protocol: Rodents are anaesthetised and dosed with compound of interest by the intra-tracheal route at a dose volume of 0.8 ml/kg. The rodent is then held in the vertical position until full recovery is achieved. At different time points, for example, 2, 8, 24 and 48 hours post-dose, levels of compound in the lung tissue are assessed by analytical methods. Any analytical method suitable for detection of this type of compound may-be used. The time at which levels of compound fall below the sensitivity of the analytical techniques identified will determine the residency time of the compound in lung tissue.
# The multimeric Compounds No 3, 4 and 20 of the invention were tested in parallel with Zanamivir [Compound (A)] using a dose of 0.4 mg/kg for each compound and assessing the level of compound in the lung tissue after 48 and 168 hours, using LC-MS/MS.
# [5] = test system: Influenza A/Victoria/3/75; parameters: species or system mice; settings: mouse, in vivo
# [6] = test system: Influenza A/Singapore/1/57; format: in vivo; parameters: Effectiveness: unit: %; settings: A/Singapore/1/57, lungs 1 day post infection; for Effectiveness / Mean Virus Titre (logTCID50/ml): mice
# [7] = test system: Influenza A/Victoria/3/75; assay: Influenza plaque assay in MDCK cell monolayers; settings: Influenza A virus, 96 h, read-out: EC50 on Influenza A/Victoria/3/75
# [8] = test system: Influenza B/Victoria/1/87; assay: Influenza plaque assay in MDCK cell monolayers; settings: Influenza B virus, 96 h, read-out: EC50 on Influenza B/Victoria/1/87
# [9] = test system: Influenza A/Victoria/3/75; parameters: species or system mice; settings: mouse, in vivo; remark: listed apart in the source
# [10] = test system: Influenza A/WSN/33; assay: Influenza plaque assay in MDCK cell monolayers; settings: Influenza A virus, 96 h, read-out: EC50 on Influenza A/WSN/33
# [11] = CPE results, same protocol as b341, MDCK cells
SMILES,IC50 ([1]; read-out: IC50 nM) [nM],IC50 ([1]; read-out: IC50 ng/ml) [ng/mL],IC50 ([2]; read-out: IC50 nM) [nM],IC50 ([2]; read-out: IC50 ng/ml) [ng/mL],IC50 ([3]; read-out: IC50 nM) [nM],IC50 ([3]; read-out: IC50 ng/ml) [ng/mL],% Effectiveness [5] [%],Mean Virus Titre (logTCID50/ml) [5] [logTCID50/ml],Number of virus free mice [5],Number of virus free mice ([6]; 1 mg/kg),Effectiveness ([6]; 1 mg/kg),Mean Virus Titre (logTCID50/ml) ([6]; 1 mg/kg),EC50 [7] [ng/mL],EC50 [8] [ng/mL],EC50 [1] [ng/mL],EC50 [2] [ng/mL],other results
"CC(=O)N[C@H]1[C@H]([C@H](OC(=O)NCCCCCCN)[C@H](O)CO)OC(C(=O)O)=C[C@@H]1NC(=N)N [Compound (2) TFA2, 5-acetamido-7-(6-aminohexylcarbamoyloxy)-4-guanidino-2,3,4,5-tetradeoxy-D-glycero-D-galacto-non-2-enopyranosonic acid]",588,413,259,182,52.7,37,–,–,–,–,–,–,–,–,–,–,–
CC(=O)N[C@H]1[C@H]([C@H](OC(=O)NCCCCCCNC(=O)CN(CCN(CC(=O)NCCCCCCNC(=O)O[C@H](C(O)CO)[C@@H]2OC(C(=O)O)=C[C@H](NC(=N)N)[C@H]2NC(C)=O)CC(=O)NCCCCCCNC(=O)O[C@H](C(O)CO)[C@@H]2OC(C(=O)O)=C[C@H](NC(=N)N)[C@H]2NC(C)=O)CC(=O)NCCCCCCNC(=O)O[C@H](C(O)CO)[C@@H]2OC(C(=O)O)=C[C@H](NC(=N)N)[C@H]2NC(C)=O)C(O)CO)OC(C(=O)O)=C[C@@H]1NC(=N)N (some centres unmarked) [Compound 3],–,–,–,–,–,–,59,4.0,4,1,99.47,3.78,0.1,0.3,–,–,level of compound in the lung tissue after 48 and 168 hours [4]: retained in the lung at much higher concentrations than the monomer Zanamivir (A); Number of virus free mice ([6]; 0.01 mg/kg): 0; Effectiveness ([6]; 0.01 mg/kg): 68.38; Mean Virus Titre (logTCID50/ml) ([6]; 0.01 mg/kg): 5.55 logTCID50/ml; Number of virus free mice ([6]; 0.1 mg/kg): 0; Effectiveness ([6]; 0.1 mg/kg): 95.53; Mean Virus Titre (logTCID50/ml) ([6]; 0.1 mg/kg): 4.70 logTCID50/ml
CC(=O)N[C@H]1[C@H]([C@H](OC(=O)NCCCCCCNC(=O)COc2c3cc(C(C)(C)C)cc2Cc2cc(C(C)(C)C)cc(c2OCC(=O)NCCCCCCNC(=O)O[C@@H]([C@@H]2OC(C(=O)O)=C[C@H](NC(=N)N)[C@H]2NC(C)=O)[C@H](O)CO)Cc2cc(C(C)(C)C)cc(c2OCC(=O)NCCCCCCNC(=O)O[C@@H]([C@@H]2OC(C(=O)O)=C[C@H](NC(=N)N)[C@H]2NC(C)=O)[C@H](O)CO)Cc2cc(C(C)(C)C)cc(c2OCC(=O)NCCCCCCNC(=O)O[C@@H]([C@@H]2OC(C(=O)O)=C[C@H](NC(=N)N)[C@H]2NC(C)=O)[C@H](O)CO)C3)[C@H](O)CO)OC(C(=O)O)=C[C@@H]1NC(=N)N [Compound 23],–,–,–,–,–,–,78.2,4.7,0,–,–,–,–,–,–,–,"EC50 on Influenza A/Sydney/5/97 [1, 11]: 27.714; EC50 on Influenza B/Harbin/7/95 [2, 11]: 9.263"
"CC(=O)N[C@H]1[C@H]([C@H](OC(=O)NCCCCCCNC(=O)CN(CCN(CC(=O)NCCCCCCNC(=O)O[C@@H]([C@@H]2OC(C(=O)O)=C[C@H](NC(=N)N)[C@H]2NC(C)=O)[C@H](O)CO)CC(=O)NCCCCCCNC(=O)O[C@@H]([C@@H]2OC(C(=O)O)=C[C@H](NC(=N)N)[C@H]2NC(C)=O)[C@H](O)CO)CC(=O)O)[C@H](O)CO)OC(C(=O)O)=C[C@@H]1NC(=N)N.O=C(O)C(F)(F)F [Compound 14, (19R,20R)-19-((2R,3R,4S)-3-(acetylamino)-4-{[amino (imino)methyl]amino}-6-carboxy-3,4-dihydro-2H-pyran-2-yl)-3,6-bis[2-({6-[({[(1R,2R)-1-((2R,3R,4S)-3-(acetylamino)-4-{[amino(imino)methyl]amino}-6-carboxy-3,4-dihydro-2H-pyran-2-yl)-2,3-dihydroxypropyl]oxy}carbonyl)amino]hexyl}amino)-2-oxoethyl]-20,21-dihydroxy-8,17-dioxo-18-oxa-3,6,9,16-tetraazahenicosan-1-oic acid tris(trifluoroacetate)]",–,–,–,–,–,–,–,–,–,–,–,–,–,6.3,–,–,–
"CC(=O)N[C@H]1[C@H]([C@H](O)[C@H](O)CO)OC(C(=O)O)=C[C@@H]1NC(=N)N [Zanamivir, 4-guanidino-2-deoxy-2,3-dehydro-N-acetylneuraminic acid, reference compound]",77.7,25.8,31.2,10.4,73.9,24.6,−43.4,–,0,0,74.88,5.18,3.5,16,32.7,14.2,Number of virus free mice ([6]; 0.2 mg/kg): 0; Effectiveness ([6]; 0.2 mg/kg): 33.17; Mean Virus Titre (logTCID50/ml) ([6]; 0.2 mg/kg): 5.60 logTCID50/ml; Number of virus free mice ([6]; 5 mg/kg): 1; Effectiveness ([6]; 5 mg/kg): 93.69; Mean Virus Titre (logTCID50/ml) ([6]; 5 mg/kg): 4.58 logTCID50/ml; Effectiveness [9]: 81.76; Number of virus free mice [9]: 0; EC50 [10]: 22.7 ng/mL
O=Cc1cc(C=O)cc(C=O)c1 [Compound 29],–,–,–,–,–,–,–,–,–,–,–,–,–,–,0.089,0.882,–
